Some test systems named below: HL-60(TB) leukemia; HOP-92 NSCLC; NCI-H226 lung; NCI-H460 lung; OVCAR-8 ovarian; SF-539 CNS; SR leukemia; TK-10 renal; U251 CNS; UACC-257 melanoma.
Holding throughout (assay): NCI-60 cell line screen, 48 h

We go through 9 compounds from PubChem BioAssay (NCI).

The structures appear in SMILES notation.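 Test compounds were applied to cells in 96-well plates for 48 hours at 5 doses. Here, GI50 denotes the concentration required for 50% inhibition of growth. Definition used: TGI = concentration required for complete inhibition of growth.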 Bounds are passed on as bounds.

Consider `C=C1CCC2C3(C)COC(c4cccc(Cl)c4)OC3CCC2(C)C1/C=C/C1=CCOC1=O` (stereo not given), for which the GI50 in the experiment with HL-60(TB) leukemia was 8.27 µM; in the experiment with HOP-92 NSCLC it was > 100 µM; with NCI-H226 lung, 6.92 µM; with NCI-H460 lung, 5.15 µM; in the experiment on OVCAR-8 ovarian it was 6.73 µM; in the experiment on SF-539 CNS it was 48.5 µM. In addition, the GI50 was 4.11 µM in the experiment with SR leukemia, > 100 µM in the experiment with TK-10 renal, 7.08 µM with U251 CNS and 3.43 µM in the experiment with UACC-257 melanoma. Further, the TGI with HL-60(TB) leukemia, in the experiment on HOP-92 NSCLC, with NCI-H226 lung, in the experiment on NCI-H460 lung, in the experiment with OVCAR-8 ovarian and in the experiment on SF-539 CNS was > 100 µM each time. The TGI with SR leukemia, in the experiment with TK-10 renal, with U251 CNS and in the experiment with UACC-257 melanoma was > 100 µM throughout.
As to `CC(=O)C(CN1CCOCC1)C(c1ccccc1)c1c(O)c2ccccc2oc1=O` (stereo not given), the TGI with HL-60(TB) leukemia, with HOP-92 NSCLC, in the experiment with NCI-H226 lung, with NCI-H460 lung, in the experiment with OVCAR-8 ovarian and in the experiment with SF-539 CNS was > 100 µM throughout. Besides, the TGI in the experiment on SR leukemia, with TK-10 renal, with U251 CNS and in the experiment with UACC-257 melanoma was > 100 µM in each case.
With `Cc1ccc2c(c1)/C(=N\N=C/c1cn(C(C)C)c3ccccc13)C(=O)N2`, the GI50 is 1.95 µM in the experiment on HL-60(TB) leukemia; 1.73 µM with HOP-92 NSCLC; 2.67 µM in the experiment on NCI-H226 lung; 0.833 µM with NCI-H460 lung; 4.7 µM in the experiment with OVCAR-8 ovarian; 2.9 µM with SF-539 CNS. Further, the GI50 with SR leukemia was 0.261 µM; in the experiment on TK-10 renal it was 15 µM; in the experiment with U251 CNS it was 3.9 µM; with UACC-257 melanoma, 5.05 µM. Moreover, the TGI was 6.17 µM with HL-60(TB) leukemia; 67.2 µM with HOP-92 NSCLC; > 100 µM with NCI-H226 lung; 13.1 µM in the experiment on NCI-H460 lung; > 100 µM in the experiment with OVCAR-8 ovarian; > 100 µM in the experiment on SF-539 CNS. The TGI in the experiment on SR leukemia, with TK-10 renal, in the experiment on U251 CNS and in the experiment with UACC-257 melanoma was > 100 µM throughout.
Consider `COc1cc2nc(-c3ccc(Cl)cc3)cc(OCCCN3CCC(O)CC3)c2cc1OC`, for which the GI50 in the experiment with HL-60(TB) leukemia was 4.27 µM; with HOP-92 NSCLC it was 1.25 µM; with NCI-H226 lung, 1.39 µM; with NCI-H460 lung, 0.955 µM; with OVCAR-8 ovarian it was 2 µM; in the experiment with SF-539 CNS it was 2.28 µM. Besides, the GI50 is 0.373 µM in the experiment on SR leukemia, 2.14 µM in the experiment with TK-10 renal, 2.81 µM in the experiment on U251 CNS and 2.06 µM with UACC-257 melanoma. Besides, the TGI with HL-60(TB) leukemia came out at 18.7 µM; in the experiment on HOP-92 NSCLC, 6.79 µM; with NCI-H226 lung, 3.62 µM; in the experiment with NCI-H460 lung, 14 µM; with OVCAR-8 ovarian, 20.7 µM; in the experiment on SF-539 CNS, 6.78 µM. For the same compound, the TGI in the experiment with SR leukemia amounted to 3.42 µM; with TK-10 renal, 6.75 µM; in the experiment on U251 CNS, 22.5 µM; in the experiment with UACC-257 melanoma, 4.56 µM.
For `COC12c3ccccc3-c3ccccc3C1[C@@H](C(=O)O)[C@H]2C(=O)O` (stereo not given in full), the TGI with HL-60(TB) leukemia, in the experiment on HOP-92 NSCLC, in the experiment on NCI-H226 lung, with NCI-H460 lung, in the experiment on OVCAR-8 ovarian and with SF-539 CNS was > 10 µM in each case. The TGI in the experiment on SR leukemia, with TK-10 renal, with U251 CNS and with UACC-257 melanoma was > 10 µM in each case.
As to `CC1(C)CCC(CN2CCN(c3ccc(C(=O)NS(=O)(=O)c4ccc(NCC5CCOCC5)c([N+](=O)[O-])c4)c(Oc4cnc5[nH]ccc5c4)c3)CC2)=C(c2ccc(Cl)cc2)C1`, the GI50 with HL-60(TB) leukemia was 0.25 µM; with HOP-92 NSCLC, 1.29 µM; in the experiment with NCI-H226 lung, 2.36 µM; in the experiment on NCI-H460 lung, 2.64 µM; with OVCAR-8 ovarian, 3.22 µM; with SF-539 CNS, 2.41 µM. Besides, the GI50 with SR leukemia is 3.21 µM; in the experiment with TK-10 renal it was 2.26 µM; in the experiment on U251 CNS, 2.9 µM; in the experiment with UACC-257 melanoma, 1.98 µM. Also, the TGI is 2.33 µM with HL-60(TB) leukemia; 2.77 µM with HOP-92 NSCLC; 6.9 µM in the experiment with NCI-H226 lung; 8.86 µM in the experiment with NCI-H460 lung; 16.5 µM in the experiment on OVCAR-8 ovarian; 5.62 µM in the experiment on SF-539 CNS. In addition, the TGI in the experiment with SR leukemia stood at 13 µM; in the experiment on TK-10 renal, 6.34 µM; with U251 CNS, 11.5 µM; in the experiment with UACC-257 melanoma it was 4.94 µM.
For the compound `O=C(NCCS(=O)(=O)N1C(=O)C2CCCN2C(=O)[C@@H]1Cc1ccccc1)OCc1ccccc1` (stereo not given in full), the TGI with HL-60(TB) leukemia was 48.9 µM; in the experiment on HOP-92 NSCLC, > 100 µM; in the experiment with NCI-H226 lung, > 100 µM; with NCI-H460 lung, > 100 µM; with OVCAR-8 ovarian, > 100 µM; in the experiment with SF-539 CNS it was > 100 µM. For the same compound, the TGI in the experiment with SR leukemia, with TK-10 renal, in the experiment on U251 CNS and in the experiment on UACC-257 melanoma was > 100 µM in each case.
`COc1cc(C2c3cc4c(cc3[C@@H](OCCN)[C@H]3COC(=O)C23)OCO4)cc(OC)c1O` (stereo not given in full): the TGI in the experiment with HL-60(TB) leukemia is 0.0633 µM; in the experiment with HOP-92 NSCLC it was 1.43 µM; with NCI-H226 lung, 0.933 µM; in the experiment on NCI-H460 lung, > 100 µM; in the experiment with OVCAR-8 ovarian, 2.61 µM; in the experiment on SF-539 CNS, 0.345 µM. Also, the TGI in the experiment on SR leukemia was 0.0693 µM; in the experiment with TK-10 renal, > 19.8 µM; in the experiment on U251 CNS, 0.401 µM; in the experiment on UACC-257 melanoma, 18.2 µM.
As to `Cc1cc2c(C)nn(Cc3ccc(Cl)cc3Cl)c2c(C#N)c1C`, the TGI in the experiment on HL-60(TB) leukemia is > 100 µM; with HOP-92 NSCLC, 92.6 µM; with NCI-H226 lung, > 100 µM; with NCI-H460 lung, > 100 µM; in the experiment on OVCAR-8 ovarian it was > 100 µM; in the experiment on SF-539 CNS, > 100 µM. Moreover, the TGI in the experiment on SR leukemia, in the experiment with TK-10 renal, in the experiment with U251 CNS and with UACC-257 melanoma was > 100 µM throughout.
